B1: BChEG117: butyrylcholinesterase as printed without H; apparently the enzyme lacking the G117H mutation (protein, UniProt P06276 29-602, looked up)
Cholinesterase: EDDIIIATKNGKVRGMNLTVFGGTVTAFLGIPYAQPPLGRLRFKKPQSLTKWSDIWNATKYANSCCQNIDQSFPGFHGSEMWNPNTDLSEDCLYLNVWIPAPKPKNATVLIWIYGGGFQTGTSSLHVYDGKFLARVERVIVVSMNYRVGALGFLALPGNPEAPGNMGLFDQQLALQWVQKNIAAFGGNPKSVTLFGESAGAASVSLHLLSPGSHSLFTRAILQSGSFNAPWAVTSLYEARNRTLNLAKLTGCSRENETEIIKCLRNKDPQEILLNEAFVVPYGTPLSVNFGPTVDGDFLTDMPDILLELGQFKKTQILVGVNKDEGTAFLVYGAPGFSKDNNSIITRKEFQEGLKIFFPGVSEFGKESILFHYTDWVDDQRPENYREALGDVVGDYNFICPALEFTKKFSEWGNNAFFYYFEHRSSKLPWPEWMGVMHGYEIEFVFGLPLERRDNYTKAEEILSRSIVKRWANFAKYGNPNETQNNSTSWPVFKSTEQKYLTLNTESTRIMTKLRAQQCRFWTSFFPKVLEMTGNIDEAEWEWKAGFHRWNNYMMDWKNQFNDYTSKKESCVGL

How the values were obtained:
E. coli DHFR = biological target: T1, E. coli DHFR (Escherichia coli, UniProt P0ABQ4); format: biochemical
T1 sequence (P0ABQ4 1-159): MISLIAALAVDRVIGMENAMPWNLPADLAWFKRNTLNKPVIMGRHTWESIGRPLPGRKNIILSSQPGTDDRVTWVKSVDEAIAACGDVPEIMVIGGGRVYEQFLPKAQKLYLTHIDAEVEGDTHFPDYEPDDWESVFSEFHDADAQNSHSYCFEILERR

[1] = format: biochemical

Molecule | decrease of hydride transfer by E. coli DHFR (E. coli DHFR) | pH independent rate for hydride transfer (E. coli DHFR) | inhibition by selected OP concentrations [1]
CC(C)O [isopropanol] | 2.2 fold | 530±10 s^−1 | 
B1 |  |  | > 99%
